# Measured values reported in patent US20210207064A1, “COMPOUND FOR RESTORING CONTAMINATED SOIL OR CONTAMINATED WATER” (FNG RESEARCH CO., LTD., priority 2018, published 2021).
# Legend:
# human skin = test: Skin irritation test of active ingredient (patch method, CTFA guidelines); type: in vivo; settings: 24 h patch; for Test result (number of subject) (+) / Test result (number of subject) (++) / Test result (number of subject) (±) / Test result (number of subject) (−): 20 people; for Test result (number of subject) (+): (+) apparent reddening; for Test result (number of subject) (++): (++) more reddened and swollen; for Test result (number of subject) (±): (±) slightly reddish; for Test result (number of subject) (−): (−) no erythema
# [1] = Formaldehyde (formalin) removing ability test (GC); settings: 2.0% formaldehyde solution, 3 molar equivalents of compound, room temperature
# [2] = Heavy metal removal ability test in contaminated soil (ICP-MS), nickel; settings: for Nickel (Ni) Adsorption amount: contaminated soil; for Nickel (Ni) Adsorption rate: relative to EDTA control
# Summary of the method: (§1)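 Sieved soil spiked with aqueous heavy metal, mixed 5 min with 3 ml of test solution, then extracted with 50 ml distilled water (20 min stirring, 1 h settling). Supernatant metal measured by ICP-MS; adsorption rate (%) expressed relative to control.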
# [3] = Heavy metal removal ability test in contaminated soil around a factory (WAK-Me test kit); settings: 1.0 wt % aqueous solution, colour comparison test kit
# Method: The contaminated soil around the factory in the industrial complex was collected, pulverized, and meshed to prepare fine particles of soil samples.
# Each 3 ml of aqueous solutions for restoring soil was added to soil samples and mixed for 5 minutes.
# [4] = Heavy metal removal ability test in contaminated soil (ICP-MS), cadmium; settings: for Cadmium (Cd) Adsorption amount: contaminated soil; for Cadmium (Cd) Adsorption rate: relative to EDTA control
# Summary of the method: as §1
# [5] = Heavy metal removal ability test in contaminated soil (ICP-MS), arsenic; settings: for Arsenic (As) Adsorption amount: contaminated soil; for Arsenic (As) Adsorption rate: relative to EDTA control
# Summary of the method: as §1
compound,measurement,setting,value
"O=C(O)c1ccc(N2CCCN(c3ccc(C(=O)O)cc3)CCN(c3ccc(C(=O)O)cc3)CCCN(c3ccc(C(=O)O)cc3)CC2)cc1 [Embodiment 10, 4,4′,4″,4′″-(1,4,8,11-tetraazacyclotetradecane-1,4,8,11-tetrayl)tetrabenzoic Acid]",Test result (number of subject) (+),human skin; content 0.1 wt %,0
same,Test result (number of subject) (++),human skin; content 0.1 wt %,0
same,Test result (number of subject) (±),human skin; content 0.1 wt %,0
same,Test result (number of subject) (−),human skin; content 0.1 wt %,20
same,Degree of irritation,human skin; content 0.1 wt %,0
same,Grade for skin irritation,human skin; content 0.1 wt %,I (Degree of irritation 0-0.1: Grade I (unstimulated))
same,Test result (number of subject) (+),human skin; content 0.5 wt %,0
same,Test result (number of subject) (++),human skin; content 0.5 wt %,0
same,Test result (number of subject) (±),human skin; content 0.5 wt %,0
same,Test result (number of subject) (−),human skin; content 0.5 wt %,20
same,Degree of irritation,human skin; content 0.5 wt %,0
same,Grade for skin irritation,human skin; content 0.5 wt %,I (Degree of irritation 0-0.1: Grade I (unstimulated))
same,Test result (number of subject) (+),human skin; content 1.0 wt %,0
same,Test result (number of subject) (++),human skin; content 1.0 wt %,0
same,Test result (number of subject) (±),human skin; content 1.0 wt %,1
same,Test result (number of subject) (−),human skin; content 1.0 wt %,19
same,Degree of irritation,human skin; content 1.0 wt %,0.05
same,Grade for skin irritation,human skin; content 1.0 wt %,I (Degree of irritation 0-0.1: Grade I (unstimulated))
same,"Formaldehyde GC Area, 30 min",[1]; after 30 min,0.171 mAU*min
same,"Formaldehyde GC Area, 180 min",[1]; after 180 min,0 mAU*min
same,"Formaldehyde GC Area, Initial",[1]; initial state,0.305 mAU*min
same,Nickel (Ni) Adsorption amount,[2]; content 0.5% aqueous solution,79 ppm
same,Nickel (Ni) Adsorption rate,[2]; content 0.5%,161%
same,Nickel (Ni) Adsorption amount,[2]; content 1.0% aqueous solution,92 ppm
same,Nickel (Ni) Adsorption rate,[2]; content 1.0%,188%
same,Nickel (Ni) Adsorption amount,[2]; content 2.0% aqueous solution,94 ppm
same,Nickel (Ni) Adsorption rate,[2]; content 2.0%,192%
same,"Total amount (Cu, Zn, Mn, Ni, Cd)",[3],≤5 ppm
same,Cadmium (Cd) Adsorption amount,[4]; content 0.5% aqueous solution,58 ppm
same,Cadmium (Cd) Adsorption rate,[4]; content 0.5%,141%
same,Cadmium (Cd) Adsorption amount,[4]; content 1.0% aqueous solution,65 ppm
same,Cadmium (Cd) Adsorption rate,[4]; content 1.0%,159%
same,Cadmium (Cd) Adsorption amount,[4]; content 2.0% aqueous solution,71 ppm
same,Cadmium (Cd) Adsorption rate,[4]; content 2.0%,173%
same,Arsenic (As) Adsorption amount,[5]; content 0.5% aqueous solution,39 ppm
same,Arsenic (As) Adsorption rate,[5]; content 0.5%,156%
same,Arsenic (As) Adsorption amount,[5]; content 1.0% aqueous solution,42 ppm
same,Arsenic (As) Adsorption rate,[5]; content 1.0%,168%
same,Arsenic (As) Adsorption amount,[5]; content 2.0% aqueous solution,46 ppm
same,Arsenic (As) Adsorption rate,[5]; content 2.0%,184%
